Experimental data reported in PMC7334075 (Molecular carcinogenesis, 2020).

Molecular target: KRAS-G12V (Homo sapiens, UniProt P01116, G12V)
Assay: DSF
Format: binding

Structure (SMILES): C=C(C)[C@@H]1CC[C@]2(C)CC[C@]3(C)[C@H](CC[C@@H]4[C@@]5(C)CC[C@H](O)C(C)(C)[C@@H]5CC[C@]43C)[C@@H]12 [Lupeol, Lup-20(29)-en-3b-ol]
- DSF (SYPRO Orange) with GDP-loaded protein; no Kd: (loaded with GDP) suggesting binding of Lupeol to both wt-KRAS and KRAS-^G12V protein
